Measurements as given in patent publication US5096896A, “Sustained release compositions” (National Research Development Corporation, priority 1981, dated 1992).
“Also recorded” adds a separate entry of the source.

Legend:
[1] = test system: P. berghei drug sensitive N strain; assay: Experiment 4: protection against drug sensitive N strain P. berghei; assay type: in vivo, Plasmodium berghei in mice
Description: (§1) This experiment was designed to ascertain whether the sustained release composition of this invention could be utilised for the release of a mixture of active substances from a single depot. Preparations of 30% sulphadiazine + 10% pyrimethamine base in S2 (a new batch prepared as in Example 6) were blended and injected sc in 50 mg aliquots into mice in the suprascapular position. Additional groups of mice received S2 alone or no drug. Three groups of mice with S2 + drugs and 1 group with S2 alone were prepared for challenge on each of days 28, 42, 56 and 70. At each time interval one group each of the S2 + drug mice were challenged by the inoculation iv of 1×10^6 mouse erythrocytes infected with the drug sensitive N strain of P. berghei, the pyrimethamine resistant PYR strain and the sulphonamide resistant ORA strain, respectively. The group of mice with S2 alone was challenged with N strain parasites. Additional groups of control mice without oil were dosed with pyrimethamine (60 mg/kg) and orisulf (1000 mg/kg) immediately post-infection.

[2] = test system: Plasmodium berghei (N strain); assay: Experiment 1: P. berghei challenge of mice after sc injection of derivative oil with or without pyrimethamine; assay type: in vivo, Plasmodium berghei in mice (Tuck TFW male white)
Description: In the following experiments several derivative oils of this invention, prepared as aforesaid, were evaluated and compared for suitability as matrixes for active substances in the preparation of injectable depot antimalarial systems.
Depot preparations were made up by adding, by hand mixing, powdered active substance to the respective oil at 30% w/w.
Twenty-eight groups of mice, 5 mice per group, were selected at random from pooled Tuck TFW male white mice of approximately body weight 20 g. The mice were provided with food and water ad libitum. Care was taken that the diet contained adequate levels of p-aminobenzoic acid and that the mouse stock was free from infection with Eperythrozoon coccoides.
On day 0 the groups of mice were processed as follows:
(§2) Subcutaneous injections were administered in the mid dorsal, suprascapular position. Cages were examined daily and all deaths recorded. Mice were examined for evidence of local irritation at the site of injection.
On day 7, groups (cages) 1 to 7 inclusive were infected with Plasmodium berghei (N strain). 0.2 ml of an inoculum containing 1×10^6 infected mouse erythrocytes was injected into the tail vein of each recipient mouse. The presence or absence of patent malarial infection was determined by blood film examination three days post infection and at intervals thereafter. Standard procedures were employed in the examination of Giemsa stained blood films and in the determination of parasitaemia levels. The method of infection and the techniques for assessment of parasitaemia were as described previously. Some groups in which no parasitaemia developed after the initial inoculation with P. berghei were subsequently reinfected on the days illustrated in Table 5.

[3] = test system: Plasmodium berghei (N strain); assay: Experiment 2: P. berghei challenge of mice after sc injection of oil/pyrimethamine mixtures; assay type: in vivo, Plasmodium berghei in mice (Tuck TFW)
Description: This experiment was designed to extend the observation presented above in Experiment 1. All basic experimental procedures, including the preparation of 30% w/w dispersions of pyrimethamine base in S1, S2 and S3, were performed as described above. The primary objective was to obtain confirmation of the results obtained above whilst extending the period of observation. […] Twenty-seven groups of mice, with 5 mice in each, were again selected at random from pooled male white mice (Tuck TFW) of 20 gm body weight. Individual groups received 50 mg injections sc of S1 + pyrimethamine, S2 + pyrimethamine, S3 + pyrimethamine or S2 above. The distribution of groups is shown below:
At intervals of 14 days one group of mice from each of the different classes of inocula were infected by the intravenous injection of 1×10^6 mouse erythrocytes parasitised with P. berghei (N strain).
The examination of mice for P. berghei infection was performed as described above in Experiment 1.

[4] = test system: mice (site of injection); assay: Tissue reaction and residual oil at the site of injection; assay type: in vivo
Description: as §2
(§3) An extensive toxicological investigation of the oils, either alone or in combination with antimalarials, has not been undertaken. The observations reported here are based on the behaviour and condition of mice immediately following injection of test substances, and on the development of any obvious gross pathology subsequent to drugging. All animals in experimental groups were examined at intervals for evidence of ulceration or other tissue reactions at the site of injection and mice were killed at intervals and examined for residual oil deposits and evidence of adverse tissue reactions to such deposits.

[5] = test system: P. berghei; assay: Experiment 5: duration of protection by tetracycline in derivative oils; assay type: in vivo, Plasmodium berghei in mice; details: 30% tetracycline hydrochloride in oil, 100 mg sc
Description: This experiment (which is incomplete) was designed to ascertain the suitability of the derivatives of this invention in the administration of antibiotics. All basis experimental procedures were as described above except that the mice received 100 mg of the 30% mixtures of active substance (tetracycline as free base, or tetracycline as hydrochloride).

[6] = test system: P. berghei sulphonamide resistant ORA strain; assay: Experiment 4: protection against sulphonamide resistant ORA strain P. berghei; assay type: in vivo, Plasmodium berghei in mice; details: 1 x 1000 mg/kg, 0 (day 42 of exp)
Description: as §1

[7] = test system: P. berghei pyrimethamine resistant PYR strain; assay: Experiment 4: protection against pyrimethamine resistant PYR strain P. berghei; assay type: in vivo, Plasmodium berghei in mice; details: 1 x 60 mg/kg, 0 (day 42 of exp)
Description: as §1

[8] = test system: mice; assay: Toxicity of the derivative oils, alone or with drug, in mice; assay type: in vivo
Description: as §3

SMILES: CCOC1CCCC(COC(=O)C2CCCC(OCC)O2)O1 (centres unmarked) [Example S2]
- Mice with patent parasitaemia post-challenge ([1]; challenge day 28, day 3): 5/5
- Mice with patent parasitaemia post-challenge ([1]; challenge day 28, day 7): 5/5
- Mice with patent parasitaemia post-challenge ([1]; challenge day 42, day 3): 5/5
- Mice with patent parasitaemia post-challenge ([1]; challenge day 42, day 7): 2/2
- Mice with patent parasitaemia post-challenge ([1]; challenge day 56, day 3): 5/5
- Mice with patent parasitaemia post-challenge ([1]; challenge day 56, day 7): 5/5
- Parasitaemia (%) on days post infection ([2]; infected 7 days after drugging, day 3, 50 mg sc): 11.2%
- Parasitaemia (%) on days post infection ([2]; infected 7 days after drugging, day 10, * estimated, 1 only survivor): ~80%
- Parasitaemia (%) on days post infection ([2]; infected 21 days after drugging, day 3, 50 mg sc): 24%
- Parasitaemia (%) on days post infection ([2]; infected 21 days after drugging, day 10, * estimated, 1 only survivor): ~80%
- Parasitaemia (%) on days post infection ([2]; infected 32 days after drugging, day 3): 11.6%
- Parasitaemia (%) on days post infection ([2]; infected 32 days after drugging, day 7): 56%
- Malaria parasites in blood on day 3 post-infection ([2]; infected day 45, groups 24 and 25): no malaria parasite was observed
- Parasitaemia (%) on days post infection ([2]; infected days 45, 48 after drugging, day 3 (first value)): 0%
- Parasitaemia (%) on days post infection ([2]; infected days 45, 48 after drugging, day 3 (second value, after the slash)): 8.8%
- Parasitaemia (%) on days post infection ([2]; infected days 45, 48 after drugging, day 7): 16.4%
- Parasitaemia (%) on days post infection ([2]; infected days 45, 48 after drugging, day 10): 80%
- Minimum period of protection of mice with pyrimethamine ([2]; oil with pyrimethamine, 50 mg sc): ≥ 9 weeks
- Duration of antimalarial protection ([3]; 50 mg sc, 30% w/w pyrimethamine base): not less than 12 weeks
- Parasitaemia on days post infection ([3]; challenge day 14, day 3/4, a: only one mouse surviving): 41%
- Parasitaemia on days post infection ([3]; challenge day 14, day 7/8, a: only one mouse surviving): 80%
- Parasitaemia on days post infection ([3]; challenge day 28, day 3/4): 26%
- Parasitaemia on days post infection ([3]; challenge day 28, day 7/8): 50%
- Parasitaemia on days post infection ([3]; challenge day 42, day 3/4): 3.7%
- Parasitaemia on days post infection ([3]; challenge day 42, day 7/8): 32%
- Parasitaemia on days post infection ([3]; challenge day 56, day 3/4): 26%
- Parasitaemia on days post infection ([3]; challenge day 56, day 7/8): 70%
- Parasitaemia on days post infection ([3]; challenge day 56, day 10): 78%
- Parasitaemia on days post infection ([3]; challenge day 70, day 3/4): 23%
- Parasitaemia on days post infection ([3]; challenge day 70, day 7/8): 74%
- Parasitaemia on days post infection ([3]; challenge day 70, day 10, a: only one mouse surviving): 80%
- Parasitaemia on days post infection ([3]; challenge day 84, day 3/4): 29.6%
- Parasitaemia on days post infection ([3]; challenge day 84, day 7/8, c: one mouse of 5 patent): 70%
- Parasitaemia on days post infection ([3]; challenge day 84, day 10): 80%
- Residual injected oil at injection site ([4]; 54 days after injection): Residues of the injected material were found in each of the 5 mice; also recorded: Somewhat greater quantities, albeit small amounts
- Persistence of oil in vivo ([4]; in words): stable for a surprisingly long time in vivo
- Tissue reaction to oil at injection site ([4]; oil alone, autopsy at 54 days): No evidence of adverse tissue reaction; also recorded: no marked fibrosis or vascularisation of the oil depot site
- Duration of protection (days), tetracycline HCl [5]: < 7 days

SMILES: Nc1ccc(S(=O)(=O)Nc2ccnn2-c2ccccc2)cc1 [orisulf]
- Mice with patent parasitaemia post-challenge ([6]; day 3): 5/5
- Mice with patent parasitaemia post-challenge ([6]; day 7): 5/5
- Mice with patent parasitaemia post-challenge ([6]; day 10): 5/5

SMILES: CCc1nc(N)nc(N)c1-c1ccc(Cl)cc1 [pyr, pyrimethamine]
- Mice with patent parasitaemia post-challenge ([7]; day 3): 5/5
- Mice with patent parasitaemia post-challenge ([7]; day 7): 4/4
- Mice with patent parasitaemia post-challenge ([7]; day 10): 4/4
- Mice dead at 24 hours ([8]; mouse, in vivo): One of 5 mice

SMILES: CCc1nc(N)nc(N)c1-c1ccc(Cl)cc1 [pyrimethamine isethionate]
- Mortality after dosing ([8]; mouse, in vivo): all mice died within 1 hour of dosing
- Distress after dosing ([8]; sc, equivalent to 750 mg/kg and 1500 mg/kg base): induced distress in animals within minutes
